Measurements as given in ChEMBL document CHEMBL1135058, “New anti-malarial compounds from database searching” (Bioorg Med Chem Lett, 2002).

Assays:
Plasmodium falciparum [1] = assay: In vitro inhibition as IC50 against Plasmodium falciparum by [3H]hypoxanthine uptake; format: functional, organism-based
Plasmodium falciparum [2] = assay: In vitro inhibition as IC50 against Plasmodium falciparum by [3H]hypoxanthine uptake; Not active; format: functional, organism-based
[3] = Plasmodium falciparum, read-out: IC50

Row | IC50 (Plasmodium falciparum [1]; [3]) [µM] | SMILES | also measured
1 | > 2 | COc1cc(C(c2c(O)oc3ccccc3c2=O)c2c(O)oc3ccccc3c2=O)cc(OC)c1OC | 
2 | 6.2 | COc1ccc(CC(=O)c2c(O)c3c(c(CC=C(C)C)c2OC)OC(C)(C)CC3)cc1 | 
3 | 20 | COc1ccc(/C(=N\O)c2nccc3cc(OC)c(OC)cc23)cc1OC | 
4 | 20 | COc1cc(C(=O)C(O)c2cc(OC)c(OC)c(OC)c2)cc(OC)c1OC (centres undefined) | 
5 | 4.6 | COc1cccc(C(O)C2=CC(=O)c3ccccc3C2=O)c1OC (centres undefined) | 
6 | 4 | CCN(CC)c1ccc(NCC(O)c2cc(Cl)ccc2OC)cc1 (centres undefined) | 
7 | 3.2 | COc1ccc(C2OCC3(O)C(c4ccc(OC)c(OC)c4)OCC23)cc1OC (centres undefined) | 
8 | 20 | O=C1C=CC(=C(c2ccc(O)cc2)c2c(Cl)c(Cl)c(Cl)c(Cl)c2C(=O)O)C=C1 | 
9 | 6.6 | Cc1cc2c3c(c1-c1c(C)cc4c(C(C)C)c(O)c(O)c(C=N)c4c1O)OC1=C4C(=O)C(O)C(C(C)C)c5cc(C)c(-c6c(C)cc7c(C(C)C)c(O)c(O)c(C=O)c7c6O)c(c54)OC(=C3C(=O)C(O)C2C(C)C)N1 (centres undefined) | 
10 |  | Cc1ccc(C(C)C)c(OP(=S)(S)Oc2cc(C)ccc2C(C)C)c1 | IC50 (Plasmodium falciparum [2]): Not Active
11 | 8 | COc1ccc(C(O)C2c3c(cc4c(c3OC)OCO4)CCN2C)c(CO)c1OC (centres undefined) | 
12 |  | CCN(CC)CCCC(C)Nc1ccnc2cc(Cl)ccc12.O=P(O)(O)O.O=P(O)(O)O (centres undefined) [CHLOROQUINE PHOSPHATE] | IC50 (Plasmodium falciparum [1]): 0.16 mg/L
13 | 3 | COc1ccccc1/C=C/C(=O)O [COUMARINIC ACID METHYL ETHER] | 

Row | SMILES | IC50 (Plasmodium falciparum [1]; [3]) [µM] | also measured
14 | COc1cccc(CN2CCCN(Cc3cccc(OC)c3O)C2c2ccc(N(CCCl)CCCl)cc2C)c1O | 1.2 | 
